Results as given in ChEMBL document CHEMBL5303573, “Mapping human microbiome drug metabolism by gut bacteria and their genes” (Nature, 2019).

Legend:
[1] = limosilactobacillus reuteri cf48-3a, 12 h, 2 µM
Description: The drug is tested on Lactobacillus reuteri CF48-3A strain: BEI HM-102 for biotransformation. The drug concentrations were measured before and after a 12-h incubation by liquid-chromatography-coupled mass spectrometry (LC–MS)

[2] = The drug is tested on Bacteroides sp. WH2 strain: WH2 for biotransformation. The drug concentrations were measured before and after a 12-h incubation by liquid-chromatography-coupled mass spectrometry (LC–MS); settings: bacteroides sp. wh2, 12 h, 2 µM
[3] = The drug is tested on Bacteroides uniformis strain: ATCC8492 for biotransformation. The drug concentrations were measured before and after a 12-h incubation by liquid-chromatography-coupled mass spectrometry (LC–MS); settings: 2 µM
[4] = The drug is tested on Clostridium symbiosum strain: ATCC14940 for biotransformation. The drug concentrations were measured before and after a 12-h incubation by liquid-chromatography-coupled mass spectrometry (LC–MS); settings: 2 µM
[5] = The drug is tested on Bifidobacterium breve strain: DSM20213 for biotransformation. The drug concentrations were measured before and after a 12-h incubation by liquid-chromatography-coupled mass spectrometry (LC–MS); settings: 2 µM
[6] = enterocloster bolteae, 12 h, 2 µM
Description: The drug is tested on Clostridium bolteae strain: ATCCBAA-613 for biotransformation. The drug concentrations were measured before and after a 12-h incubation by liquid-chromatography-coupled mass spectrometry (LC–MS)

[7] = The drug is tested on Coprococcus comes strain: ATCC27758 for biotransformation. The drug concentrations were measured before and after a 12-h incubation by liquid-chromatography-coupled mass spectrometry (LC–MS); format: ADME; parameters: dose 2 uM, timepoint 0 vs 12 hours; settings: 2 µM
[8] = segatella copri, 12 h, 2 µM
Description: The drug is tested on Prevotella copri strain: DSM18205 for biotransformation. The drug concentrations were measured before and after a 12-h incubation by liquid-chromatography-coupled mass spectrometry (LC–MS)

[9] = The drug is tested on Bifidobacterium ruminantium strain: fecal isolate for biotransformation. The drug concentrations were measured before and after a 12-h incubation by liquid-chromatography-coupled mass spectrometry (LC–MS); settings: 2 µM
[10] = parabacteroides distasonis, 12 h, 2 µM
Description: The drug is tested on Parabacteroides distasonis strain: ATCC8503 for biotransformation. The drug concentrations were measured before and after a 12-h incubation by liquid-chromatography-coupled mass spectrometry (LC–MS)

[11] = bifidobacterium adolescentis, 12 h, 2 µM
Description: The drug is tested on Bifidobacterium adolescentis strain: ATCC 15703 for biotransformation. The drug concentrations were measured before and after a 12-h incubation by liquid-chromatography-coupled mass spectrometry (LC–MS)

[12] = The drug is tested on Ruminococcus gnavus strain: ATCC29149 for biotransformation. The drug concentrations were measured before and after a 12-h incubation by liquid-chromatography-coupled mass spectrometry (LC–MS); settings: mediterraneibacter gnavus, 2 µM
[13] = The drug is tested on Bacteroides coprophilus strain: DSM18228 for biotransformation. The drug concentrations were measured before and after a 12-h incubation by liquid-chromatography-coupled mass spectrometry (LC–MS); settings: 2 µM
[14] = The drug is tested on Bifidobacterium longum subsp. Infantis strain: CCUG52486 for biotransformation. The drug concentrations were measured before and after a 12-h incubation by liquid-chromatography-coupled mass spectrometry (LC–MS); settings: 2 µM
[15] = bacteroides fragilis, 12 h, 2 µM
Description: The drug is tested on Bacteroides fragilis strain: NCTC 9343 for biotransformation. The drug concentrations were measured before and after a 12-h incubation by liquid-chromatography-coupled mass spectrometry (LC–MS)

[16] = bacteroides eggerthii, 12 h, 2 µM
Description: The drug is tested on Bacteroides eggerthii strain: DSM20697 for biotransformation. The drug concentrations were measured before and after a 12-h incubation by liquid-chromatography-coupled mass spectrometry (LC–MS)

[17] = roseburia intestinalis, 12 h, 2 µM
Description: The drug is tested on Roseburia intestinalis strain: L1-82 for biotransformation. The drug concentrations were measured before and after a 12-h incubation by liquid-chromatography-coupled mass spectrometry (LC–MS)

[18] = The drug is tested on Escherichia coli strain: BW25113 for biotransformation. The drug concentrations were measured before and after a 12-h incubation by liquid-chromatography-coupled mass spectrometry (LC–MS); settings: 2 µM
[19] = akkermansia muciniphila, 12 h, 2 µM
Description: The drug is tested on Akkermansia muciniphila strain: ATCC BAA-835 for biotransformation. The drug concentrations were measured before and after a 12-h incubation by liquid-chromatography-coupled mass spectrometry (LC–MS)

[20] = The drug is tested on Subdoligranulum variabile strain: DSM15176 for biotransformation. The drug concentrations were measured before and after a 12-h incubation by liquid-chromatography-coupled mass spectrometry (LC–MS); settings: 2 µM
[21] = The drug is tested on Bacteroides finegoldii strain: DSM17565 for biotransformation. The drug concentrations were measured before and after a 12-h incubation by liquid-chromatography-coupled mass spectrometry (LC–MS); settings: 2 µM
[22] = The drug is tested on Anaerococcus hydrogenalis strain: DSM7454 for biotransformation. The drug concentrations were measured before and after a 12-h incubation by liquid-chromatography-coupled mass spectrometry (LC–MS); settings: 2 µM
[23] = The drug is tested on Parabacteroides merdae strain: ATCC43184 for biotransformation. The drug concentrations were measured before and after a 12-h incubation by liquid-chromatography-coupled mass spectrometry (LC–MS); settings: 2 µM
[24] = bacteroides stercoris, 12 h, 2 µM
Description: The drug is tested on Bacteroides stercoris strain: ATCC43183 for biotransformation. The drug concentrations were measured before and after a 12-h incubation by liquid-chromatography-coupled mass spectrometry (LC–MS)

[25] = anaerostipes sp., 12 h, 2 µM
Description: The drug is tested on Anaerostipes sp. strain: fecal isolate for biotransformation. The drug concentrations were measured before and after a 12-h incubation by liquid-chromatography-coupled mass spectrometry (LC–MS)

[26] = The drug is tested on Eggerthella lenta strain: ATCC25559 for biotransformation. The drug concentrations were measured before and after a 12-h incubation by liquid-chromatography-coupled mass spectrometry (LC–MS); settings: 2 µM
[27] = The drug is tested on Ruminococcus torques strain: ATCC27756 for biotransformation. The drug concentrations were measured before and after a 12-h incubation by liquid-chromatography-coupled mass spectrometry (LC–MS); format: ADME; parameters: dose 2 uM, timepoint 0 vs 12 hours; settings: 2 µM
[28] = The drug is tested on Eubacterium hallii strain: DSM3353 for biotransformation. The drug concentrations were measured before and after a 12-h incubation by liquid-chromatography-coupled mass spectrometry (LC–MS); settings: anaerobutyricum hallii, 2 µM
[29] = bacteroides fragilis, 12 h, 2 µM; remark: listed apart in the source
Description: The drug is tested on Bacteroides fragilis strain: 3397 (T10) for biotransformation. The drug concentrations were measured before and after a 12-h incubation by liquid-chromatography-coupled mass spectrometry (LC–MS)

[30] = The drug is tested on Providencia rettgeri strain: DSM1131 for biotransformation. The drug concentrations were measured before and after a 12-h incubation by liquid-chromatography-coupled mass spectrometry (LC–MS); format: ADME; parameters: dose 2 uM, timepoint 0 vs 12 hours; settings: 2 µM
[31] = The drug is tested on Eubacterium rectale strain: ATCC33656 for biotransformation. The drug concentrations were measured before and after a 12-h incubation by liquid-chromatography-coupled mass spectrometry (LC–MS); settings: agathobacter rectalis, 2 µM
[32] = The drug is tested on Bacteroides vulgatus strain: ATCC8482 for biotransformation. The drug concentrations were measured before and after a 12-h incubation by liquid-chromatography-coupled mass spectrometry (LC–MS); settings: phocaeicola vulgatus, 2 µM
[33] = bacteroides fragilis, 12 h, 2 µM; remark: listed apart in the source
Description: The drug is tested on Bacteroides fragilis strain: DS-208 for biotransformation. The drug concentrations were measured before and after a 12-h incubation by liquid-chromatography-coupled mass spectrometry (LC–MS)

[34] = The drug is tested on Bacteroides fragilis strain: HMW615 for biotransformation. The drug concentrations were measured before and after a 12-h incubation by liquid-chromatography-coupled mass spectrometry (LC–MS); settings: 2 µM
[35] = The drug is tested on Alistipes indistinctus strain: DSM22520 for biotransformation. The drug concentrations were measured before and after a 12-h incubation by liquid-chromatography-coupled mass spectrometry (LC–MS); settings: 2 µM
[36] = The drug is tested on Collinsella aerofaciens strain: ATCC25986 for biotransformation. The drug concentrations were measured before and after a 12-h incubation by liquid-chromatography-coupled mass spectrometry (LC–MS); settings: 2 µM
[37] = The drug is tested on Bacteroides ovatus strain: ATCC8483 for biotransformation. The drug concentrations were measured before and after a 12-h incubation by liquid-chromatography-coupled mass spectrometry (LC–MS); settings: 2 µM
[38] = The drug is tested on Bacteroides pectinophilus strain: ATCC43243 for biotransformation. The drug concentrations were measured before and after a 12-h incubation by liquid-chromatography-coupled mass spectrometry (LC–MS); settings: 2 µM
[39] = The drug is tested on Collinsella intestinalis strain: DSM13280 for biotransformation. The drug concentrations were measured before and after a 12-h incubation by liquid-chromatography-coupled mass spectrometry (LC–MS); settings: 2 µM
[40] = The drug is tested on Bacteroides caccae strain: ATCC43185 for biotransformation. The drug concentrations were measured before and after a 12-h incubation by liquid-chromatography-coupled mass spectrometry (LC–MS); settings: 2 µM
[41] = The drug is tested on Clostridium sporogenes strain: ATCC15579 for biotransformation. The drug concentrations were measured before and after a 12-h incubation by liquid-chromatography-coupled mass spectrometry (LC–MS); settings: 2 µM
[42] = The drug is tested on Bacteroides xylanisolvens strain: DSM18836 for biotransformation. The drug concentrations were measured before and after a 12-h incubation by liquid-chromatography-coupled mass spectrometry (LC–MS); settings: 2 µM
[43] = parabacteroides johnsonii, 12 h, 2 µM
Description: The drug is tested on Parabacteroides johnsonii strain: DSM18315 for biotransformation. The drug concentrations were measured before and after a 12-h incubation by liquid-chromatography-coupled mass spectrometry (LC–MS)

SMILES: COc1cc(NC(C)CCCN)c2ncccc2c1.O=P(O)(O)O.O=P(O)(O)O (stereo not drawn) [PRIMAQUINE PHOSPHATE]
- Bacterial Biotransformation [1]: Compound NOT metabolized
- Bacterial Biotransformation [2]: Compound NOT metabolized
- Bacterial Biotransformation [3]: Compound metabolized
- Bacterial Biotransformation [4]: Compound metabolized
- Bacterial Biotransformation [5]: Compound metabolized
- Bacterial Biotransformation [6]: Compound metabolized
- Bacterial Biotransformation [7]: Compound NOT metabolized
- Bacterial Biotransformation [8]: Compound metabolized
- Bacterial Biotransformation [9]: Compound metabolized
- Bacterial Biotransformation [10]: Compound metabolized
- Bacterial Biotransformation [11]: Compound NOT metabolized
- Bacterial Biotransformation [12]: Compound NOT metabolized
- Bacterial Biotransformation [13]: Compound NOT metabolized
- Bacterial Biotransformation [14]: Compound metabolized
- Bacterial Biotransformation [15]: Compound NOT metabolized
- Bacterial Biotransformation [16]: Compound NOT metabolized
- Bacterial Biotransformation [17]: Compound NOT metabolized
- Bacterial Biotransformation [18]: Compound metabolized
- Bacterial Biotransformation [19]: Compound NOT metabolized
- Bacterial Biotransformation [20]: Compound NOT metabolized
- Bacterial Biotransformation [21]: Compound metabolized
- Bacterial Biotransformation [22]: Compound metabolized
- Bacterial Biotransformation [23]: Compound NOT metabolized
- Bacterial Biotransformation [24]: Compound NOT metabolized
- Bacterial Biotransformation [25]: Compound NOT metabolized
- Bacterial Biotransformation [26]: Compound NOT metabolized
- Bacterial Biotransformation [27]: Compound NOT metabolized
- Bacterial Biotransformation [28]: Compound NOT metabolized
- Bacterial Biotransformation [29]: Compound metabolized
- Bacterial Biotransformation [30]: Compound NOT metabolized
- Bacterial Biotransformation [31]: Compound NOT metabolized
- Bacterial Biotransformation [32]: Compound NOT metabolized
- Bacterial Biotransformation [33]: Compound NOT metabolized
- Bacterial Biotransformation [34]: Compound NOT metabolized
- Bacterial Biotransformation [35]: Compound NOT metabolized
- Bacterial Biotransformation [36]: Compound metabolized
- Bacterial Biotransformation [37]: Compound metabolized
- Bacterial Biotransformation [38]: Compound metabolized
- Bacterial Biotransformation [39]: Compound metabolized
- Bacterial Biotransformation [40]: Compound NOT metabolized
- Bacterial Biotransformation [41]: Compound NOT metabolized
- Bacterial Biotransformation [42]: Compound metabolized
- Bacterial Biotransformation [43]: Compound metabolized
